Results reported in ChEMBL document CHEMBL1201862, “PubChem BioAssay data set” (2004).
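48-hour exposure; five concentrations; linearly interpolated endpoints. Abbreviation: GI50, concentration required for 50% inhibition of growth.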 Calls of active or inactive are those of the source. Rule as the data show it: active = GI50 up to about 1.1 µM and inactive = higher.

Columns and labels:
Experiment in all cases: NCI anticancer screen, dose series, 48 h
HCT-116 = test system: HCT-116
KM12 = test system: KM12
NCI-H460 = test system: NCI-H460
MDA-MB-435 = test system: MDA-MB-435
EKVX = test system: EKVX
OVCAR-3 = test system: OVCAR-3
786-0 = test system: 786-0
T47D = test system: T47D
MOLT-4 = test system: MOLT-4
SK-MEL-5 = test system: SK-MEL-5
HOP-62 = test system: HOP-62
MDA-MB-231 = test system: MDA-MB-231
SF-295 = test system: SF-295
IGROV-1 = test system: IGROV-1
SK-MEL-28 = test system: SK-MEL-28
NCI-H23 = test system: NCI-H23
A498 = test system: A498
NCI-H226 = test system: NCI-H226
Hs-578T = test system: Hs-578T
UACC-257 = test system: UACC-257

Compound	GI50 (HCT-116)	GI50 (KM12)	GI50 (NCI-H460)	GI50 (MDA-MB-435)	GI50 (EKVX)	GI50 (OVCAR-3)	GI50 (786-0)	GI50 (T47D)	GI50 (MOLT-4)	GI50 (SK-MEL-5)	GI50 (HOP-62)	GI50 (MDA-MB-231)	GI50 (SF-295)	GI50 (IGROV-1)	GI50 (SK-MEL-28)	GI50 (NCI-H23)	GI50 (A498)	GI50 (NCI-H226)	GI50 (Hs-578T)	GI50 (UACC-257)
CCN(CC(=O)O)CC(=O)O	> 100 µM (inactive)	> 100 µM (inactive)	> 100 µM (inactive)	> 100 µM (inactive)	> 100 µM (inactive)	> 100 µM (inactive)	> 100 µM (inactive)	> 100 µM (inactive)	> 100 µM (inactive)	> 100 µM (inactive)	> 100 µM (inactive)	> 100 µM (inactive)	> 100 µM (inactive)	> 100 µM (inactive)	> 100 µM (inactive)	> 100 µM (inactive)	> 100 µM (inactive)	> 100 µM (inactive)	> 100 µM (inactive)	> 100 µM (inactive)
CCN(CC)CCSc1c(C(C)=O)c(=O)n(-c2ccccc2)c(=S)n1-c1ccccc1	2.28 µM (inactive)	17.2 µM (inactive)	21.1 µM (inactive)	6.17 µM (inactive)	15.1 µM (inactive)	2.81 µM (inactive)	1.8 µM (inactive)	2.58 µM (inactive)	2.77 µM (inactive)	13.8 µM (inactive)	18.9 µM (inactive)	13.1 µM (inactive)	> 78 µM (inactive)	13 µM (inactive)	10.5 µM (inactive)	14.7 µM (inactive)	19.1 µM (inactive)	> 40.3 µM (inactive)	23.4 µM (inactive)	9.98 µM (inactive)
Cc1nc(-c2ccccc2)c(-c2ccccc2)s1	25.6 µM (inactive)	20.4 µM (inactive)	19.1 µM (inactive)	17.9 µM (inactive)	22.6 µM (inactive)	23.5 µM (inactive)	21.4 µM (inactive)	37.8 µM (inactive)	17.6 µM (inactive)	14.4 µM (inactive)	38 µM (inactive)	22.5 µM (inactive)	24.8 µM (inactive)	18.6 µM (inactive)	45 µM (inactive)	28.1 µM (inactive)	17.6 µM (inactive)	17.9 µM (inactive)	21.8 µM (inactive)	25.1 µM (inactive)
C=C1CC2(CC(c3ccccc3C)OC(c3ccccc3C)C2)OC1=O (stereo not given)	1.82 µM (inactive)	2.18 µM (inactive)	2.96 µM (inactive)	1.71 µM (inactive)	16.1 µM (inactive)	1.78 µM (inactive)	1.96 µM (inactive)	1.72 µM (inactive)	2.77 µM (inactive)	1.86 µM (inactive)	10.7 µM (inactive)	1.6 µM (inactive)	15.8 µM (inactive)	1.69 µM (inactive)	1.82 µM (inactive)	1.96 µM (inactive)	8.99 µM (inactive)	7.78 µM (inactive)	2.24 µM (inactive)	1.78 µM (inactive)
COc1cc(OC)cc(Oc2nc3ccccc3nc2C(F)(F)F)c1	> 100 µM (inactive)	> 100 µM (inactive)	> 100 µM (inactive)	3.41 µM (inactive)	> 100 µM (inactive)	> 100 µM (inactive)	> 100 µM (inactive)	> 100 µM (inactive)	> 100 µM (inactive)	76.7 µM (inactive)	19.3 µM (inactive)	14.7 µM (inactive)	28.8 µM (inactive)	5.89 µM (inactive)	> 100 µM (inactive)	> 100 µM (inactive)	22.9 µM (inactive)	> 100 µM (inactive)	72.1 µM (inactive)	> 100 µM (inactive)
CN1CCN(C(=O)c2cn(Cc3cncn3Cc3ccc4c(c3)OCO4)cc2-c2cccc3ccccc23)CC1	4.89 µM (inactive)	0.782 µM (active)	2.46 µM (inactive)	0.198 µM (active)	15.3 µM (inactive)	25.5 µM (inactive)	20.9 µM (inactive)	15.7 µM (inactive)	1.58 µM (inactive)	9.04 µM (inactive)	26.9 µM (inactive)	9.25 µM (inactive)	6.24 µM (inactive)	2.85 µM (inactive)	4.83 µM (inactive)	12.2 µM (inactive)	0.883 µM (active)	58.1 µM (inactive)	23.2 µM (inactive)	14 µM (inactive)
CC(C)(C)OC(=O)NCC(C#N)CNC(=O)OC(C)(C)C	> 100 µM (inactive)	> 100 µM (inactive)	> 100 µM (inactive)	> 100 µM (inactive)	> 100 µM (inactive)	> 100 µM (inactive)	> 100 µM (inactive)	> 100 µM (inactive)	> 100 µM (inactive)	> 100 µM (inactive)	> 100 µM (inactive)	> 100 µM (inactive)	> 100 µM (inactive)	> 100 µM (inactive)	> 100 µM (inactive)	> 100 µM (inactive)	> 100 µM (inactive)	> 100 µM (inactive)	> 100 µM (inactive)	> 100 µM (inactive)
CCOC(=O)C1OC(C2(C)OC3(OC4(C=CC3O)OC(C(C)C(=O)C(C)C(O)C(C)CC(C)c3c(Cl)cc(C)c(O)c3C(=O)O)C(C)CC4C)C(C)C2OC)CC1O (stereo not given)	0.693 µM (active)	1.28 µM (inactive)	0.0826 µM (active)	0.286 µM (active)	1.09 µM (active)	0.45 µM (active)	0.454 µM (active)	0.955 µM (active)	0.117 µM (active)	0.257 µM (active)	0.0535 µM (active)	1.15 µM (inactive)	0.257 µM (active)	2.1 µM (inactive)	0.418 µM (active)	0.507 µM (active)	0.46 µM (active)	0.24 µM (active)	0.982 µM (active)	0.577 µM (active)
OC(c1cc(-c2ccc(Cl)cc2)nc2ccccc12)C1CCCCN1 (stereo not given)	1.92 µM (inactive)	2.26 µM (inactive)	2.08 µM (inactive)	2.09 µM (inactive)	2.14 µM (inactive)	2.07 µM (inactive)	1.93 µM (inactive)	1.77 µM (inactive)	2.37 µM (inactive)	2.24 µM (inactive)	1.61 µM (inactive)	1.95 µM (inactive)	1.94 µM (inactive)	1.76 µM (inactive)	1.87 µM (inactive)	2.15 µM (inactive)	1.82 µM (inactive)	4.21 µM (inactive)	1.99 µM (inactive)	2.66 µM (inactive)
CNC(=O)C1CCC(=O)N1CN(C(C)=O)c1ccccc1 (stereo not given)	> 100 µM (inactive)	> 100 µM (inactive)	> 100 µM (inactive)	> 100 µM (inactive)	> 100 µM (inactive)	> 100 µM (inactive)	> 100 µM (inactive)	> 100 µM (inactive)	> 100 µM (inactive)	> 100 µM (inactive)	> 100 µM (inactive)	> 100 µM (inactive)	> 100 µM (inactive)	> 100 µM (inactive)	> 100 µM (inactive)	> 100 µM (inactive)	> 100 µM (inactive)	> 100 µM (inactive)	> 100 µM (inactive)	> 100 µM (inactive)
O=C(O)CSc1ccc(N=C=S)cc1	64.3 µM (inactive)	> 100 µM (inactive)	56.9 µM (inactive)	81.8 µM (inactive)	> 100 µM (inactive)	94 µM (inactive)	82.6 µM (inactive)	72.4 µM (inactive)	20.4 µM (inactive)	37.8 µM (inactive)	54.1 µM (inactive)	84.1 µM (inactive)	89.3 µM (inactive)	> 100 µM (inactive)	34.8 µM (inactive)	78.9 µM (inactive)	52.2 µM (inactive)	54.5 µM (inactive)	47.5 µM (inactive)	29.5 µM (inactive)
CCCCCCCCCCCCCCCCSS(C)(=O)=O	10.6 µM (inactive)	> 100 µM (inactive)	> 61.2 µM (inactive)	> 100 µM (inactive)	> 91.2 µM (inactive)	10.9 µM (inactive)	7.06 µM (inactive)	8.97 µM (inactive)	1.39 µM (inactive)	32.8 µM (inactive)	> 100 µM (inactive)	> 100 µM (inactive)	> 100 µM (inactive)	32.4 µM (inactive)	11.9 µM (inactive)	42.8 µM (inactive)	52.4 µM (inactive)	> 27.6 µM (inactive)	> 100 µM (inactive)	42.2 µM (inactive)
Cc1n[n+](CC(=O)c2ccccc2)c2sc(N)nn12	> 100 µM (inactive)	> 100 µM (inactive)	> 100 µM (inactive)	> 100 µM (inactive)	> 100 µM (inactive)	> 100 µM (inactive)	> 100 µM (inactive)	> 100 µM (inactive)	> 100 µM (inactive)	72.3 µM (inactive)	> 100 µM (inactive)	> 100 µM (inactive)	> 100 µM (inactive)	> 100 µM (inactive)	> 100 µM (inactive)	> 100 µM (inactive)	> 100 µM (inactive)	> 100 µM (inactive)	> 100 µM (inactive)	> 100 µM (inactive)
